Experiment: Conformational equilibrium of open chain and cyclic forms in aqueous solution (from apparent Ki at equilibrium vs true Ki)
Type: physicochemical
Conditions: at equilibrium at pH 7.0
From the text: See FIG. 3 which is a diagram showing the structures of the open and cyclized forms of Xaa-boroPro inhibitors (conformational equilibrium of Xaa-boroproline inhibitors). The open, active, inhibitory chain species is favored at low pH while the cyclized structure is favored at neutral pH. The reaction is fully reversible: the open chain becomes predominant at low pH. The open chain to cyclic species reaction involves a trans to cis isomerization of the proline and the formation of a new N—B bond. […] G. Gutheil and W. W. Bachovchin, Separation of L-Pro-DL-boroPro into Its Component Diastereomers and Kinetic Analysis of Their Inhibition of Dipeptidyl Peptidase IV. A New Method for the Analysis of Slow, Tight-Binding Inhibition, Biochemistry 32, 8723-8731 (1993)).

| SMILES | fraction existing as the open chain, inhibitory species |
| --- | --- |
| O=C(C1CCCN1)N1CCCC1B(O)O (centres unmarked) [Pro-boroPro] | less than 1% |
| CC(C)C(N)C(=O)N1CCCC1B(O)O (centres unmarked) [Val-boroPro] | less than 0.1% |

— patent US6355614B1, “Cyclic boroproline compounds” (Point Therapeutics, priority 1998, dated 2002)
